Laboratory results published in ChEMBL document CHEMBL1201862, “PubChem BioAssay data set” (2004).
Active and inactive are the calls of the source.

Assays:
Ephrin type-A receptor 4 = Ephrin type-A receptor 4 (Mus musculus, UniProt Q03137); experiment: inhibitors of EphA4 binding to KYL peptide, primary screen, biochemical, colorimetric, mouse EphA4 (AID 689); format: functional
[1] = biological target: T1, Tyrosine-protein phosphatase non-receptor type 7 (Homo sapiens, UniProt P35236); experiment: inhibitors of human HePTP phosphatase, […], biochemical, absorbance, leukemia target (AID 521); format: functional
T1 sequence (P35236 whole entry): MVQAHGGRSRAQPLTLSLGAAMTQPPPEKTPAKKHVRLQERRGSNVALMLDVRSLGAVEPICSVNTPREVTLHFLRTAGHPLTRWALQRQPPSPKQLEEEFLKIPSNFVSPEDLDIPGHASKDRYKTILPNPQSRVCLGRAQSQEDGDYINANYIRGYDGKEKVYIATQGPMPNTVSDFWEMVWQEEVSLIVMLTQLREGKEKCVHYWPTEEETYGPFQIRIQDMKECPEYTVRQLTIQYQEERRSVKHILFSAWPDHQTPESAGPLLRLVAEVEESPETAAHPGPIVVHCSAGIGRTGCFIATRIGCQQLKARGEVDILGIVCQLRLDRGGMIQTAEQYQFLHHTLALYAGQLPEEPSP

[2] = inhibitors of intracellular T. cruzi replication, confirmation, NIH3T3 host cells, beta-gal luminescence (AID 2044); format: functional, cell-based;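 further: intracellular parasites grown in NIH/3T3 mouse fibroblasts as host cells; luminescent beta-galactosidase reporter signal from transgenic T. cruzi replicating inside host cells; inhibitors lower the luminescence signal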
[3] = cytotoxicity toward NIH3T3 fibroblasts, dose response, counter-screen, cell-based, ATP luminescence, mouse fibroblasts (AID 2010); format: functional;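 further: cells exposed to compound for about 90 hours before reading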
[4] = biological target: Peroxisome proliferator-activated receptor gamma/Nuclear receptor corepressor 2 (Homo sapiens, UniProt P37231+Q9Y618); experiment: Counterscreen for NR2E3 inverse agonists: TR-FRET-based biochemical high throughput dose response assay to identify inverse agonists of the interaction between peroxisome proliferator-activated receptor gamma (PPARg) and nuclear receptor co-repressor 2 (NCOR2).; format: functional
[5] = biological target: Photoreceptor-specific nuclear receptor (Homo sapiens, UniProt Q9Y5X4); experiment: NR2E3 inverse agonists, dose response, biochemical, TR-FRET (AID 463256); format: functional
Photoreceptor-specific nuclear receptor, sequence (Q9Y5X4 whole entry): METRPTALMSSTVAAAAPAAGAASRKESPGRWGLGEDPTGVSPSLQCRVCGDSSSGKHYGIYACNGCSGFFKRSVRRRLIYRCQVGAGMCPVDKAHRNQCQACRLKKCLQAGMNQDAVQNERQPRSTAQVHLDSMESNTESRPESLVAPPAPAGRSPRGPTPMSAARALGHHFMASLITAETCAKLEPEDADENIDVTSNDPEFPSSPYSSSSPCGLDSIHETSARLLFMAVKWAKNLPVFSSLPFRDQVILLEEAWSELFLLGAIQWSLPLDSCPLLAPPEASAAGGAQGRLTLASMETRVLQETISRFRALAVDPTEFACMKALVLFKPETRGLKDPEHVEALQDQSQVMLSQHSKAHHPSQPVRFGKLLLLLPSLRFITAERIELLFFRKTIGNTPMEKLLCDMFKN

[6] = M. tuberculosis growth inhibition, HTS (AID 449762); format: functional
NADPH oxidase 1 = biological target: T2, NADPH oxidase 1 (Homo sapiens, UniProt Q9Y5S8); format: functional, cell-based;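 further: Cell-based assay with luminescence read-out, IC50 derived from inhibitor dose-response curves; intracellular ROS from endogenous NOX1 in intact HT29 colon cancer cells; potency of inhibitors that lower the ROS luminescence signal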
T2 sequence (Q9Y5S8 whole entry): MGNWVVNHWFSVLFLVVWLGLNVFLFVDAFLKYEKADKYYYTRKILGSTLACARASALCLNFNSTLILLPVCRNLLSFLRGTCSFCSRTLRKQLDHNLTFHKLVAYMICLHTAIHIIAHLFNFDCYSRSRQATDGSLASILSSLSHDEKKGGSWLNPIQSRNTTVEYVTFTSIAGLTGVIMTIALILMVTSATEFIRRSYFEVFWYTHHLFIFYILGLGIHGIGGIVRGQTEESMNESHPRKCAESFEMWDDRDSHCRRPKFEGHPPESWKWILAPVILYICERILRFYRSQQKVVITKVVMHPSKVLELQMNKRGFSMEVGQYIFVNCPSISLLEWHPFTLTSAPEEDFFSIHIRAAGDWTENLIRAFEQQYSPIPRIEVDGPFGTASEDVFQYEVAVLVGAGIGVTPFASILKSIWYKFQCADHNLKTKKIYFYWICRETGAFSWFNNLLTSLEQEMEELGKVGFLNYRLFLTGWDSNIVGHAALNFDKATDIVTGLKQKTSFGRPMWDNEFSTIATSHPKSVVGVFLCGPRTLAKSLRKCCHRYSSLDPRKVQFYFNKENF

[7] = biological target: 5-hydroxytryptamine receptor 1A (Homo sapiens, UniProt P08908); format: functional
[8] = biological target: E3 ubiquitin-protein ligase Mdm2 (Homo sapiens, UniProt Q00987); experiment: enhancers of MDM2-luciferase reporter signal, concentration-effect titration, project on inhibitors of MDM2 ubiquitin ligase, cellular assay, luminescent readout, 384-well plate format (AID 1394); format: functional;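 further: MDM2 E3 inhibitors raise luminescence so EC50 is for signal enhancement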
Mucolipin-3 = Mucolipin-3 (Homo sapiens, UniProt Q8TDD5); experiment: Dose response cell-based high-throughput screening assay for agonists of the transient receptor potential channel ML3 (TRPML3). [Related pubchem assays: 1526, 1424, 1448 ]; format: functional
Mucolipin-3, sequence (Q8TDD5 whole entry): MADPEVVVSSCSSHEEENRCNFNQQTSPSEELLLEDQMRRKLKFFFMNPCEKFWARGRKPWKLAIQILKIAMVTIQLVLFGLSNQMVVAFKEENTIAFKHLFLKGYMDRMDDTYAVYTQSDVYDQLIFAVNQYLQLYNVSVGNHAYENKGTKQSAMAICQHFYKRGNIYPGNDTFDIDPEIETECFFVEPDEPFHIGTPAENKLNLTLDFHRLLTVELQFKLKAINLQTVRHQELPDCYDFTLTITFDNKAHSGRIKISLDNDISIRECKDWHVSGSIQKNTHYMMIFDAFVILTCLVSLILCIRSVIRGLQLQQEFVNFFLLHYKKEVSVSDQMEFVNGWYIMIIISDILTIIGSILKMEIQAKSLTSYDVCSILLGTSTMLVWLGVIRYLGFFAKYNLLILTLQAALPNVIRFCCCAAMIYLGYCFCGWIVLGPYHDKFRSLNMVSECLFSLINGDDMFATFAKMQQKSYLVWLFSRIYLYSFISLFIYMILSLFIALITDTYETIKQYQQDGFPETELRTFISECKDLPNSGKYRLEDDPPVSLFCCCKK

Ion channel NompC = Ion channel NompC (Danio rerio, UniProt Q7T1G6); experiment: Fluorescence counterscreen assay for TRPML3 agonists: dose response cell-based high-throughput screening assay to identify agonists of the transient receptor potential channel N1 (TRPN1). [Related pubchem assays: 1526, 1424, 1448 ]; format: functional
Ion channel NompC, sequence (Q7T1G6 whole entry): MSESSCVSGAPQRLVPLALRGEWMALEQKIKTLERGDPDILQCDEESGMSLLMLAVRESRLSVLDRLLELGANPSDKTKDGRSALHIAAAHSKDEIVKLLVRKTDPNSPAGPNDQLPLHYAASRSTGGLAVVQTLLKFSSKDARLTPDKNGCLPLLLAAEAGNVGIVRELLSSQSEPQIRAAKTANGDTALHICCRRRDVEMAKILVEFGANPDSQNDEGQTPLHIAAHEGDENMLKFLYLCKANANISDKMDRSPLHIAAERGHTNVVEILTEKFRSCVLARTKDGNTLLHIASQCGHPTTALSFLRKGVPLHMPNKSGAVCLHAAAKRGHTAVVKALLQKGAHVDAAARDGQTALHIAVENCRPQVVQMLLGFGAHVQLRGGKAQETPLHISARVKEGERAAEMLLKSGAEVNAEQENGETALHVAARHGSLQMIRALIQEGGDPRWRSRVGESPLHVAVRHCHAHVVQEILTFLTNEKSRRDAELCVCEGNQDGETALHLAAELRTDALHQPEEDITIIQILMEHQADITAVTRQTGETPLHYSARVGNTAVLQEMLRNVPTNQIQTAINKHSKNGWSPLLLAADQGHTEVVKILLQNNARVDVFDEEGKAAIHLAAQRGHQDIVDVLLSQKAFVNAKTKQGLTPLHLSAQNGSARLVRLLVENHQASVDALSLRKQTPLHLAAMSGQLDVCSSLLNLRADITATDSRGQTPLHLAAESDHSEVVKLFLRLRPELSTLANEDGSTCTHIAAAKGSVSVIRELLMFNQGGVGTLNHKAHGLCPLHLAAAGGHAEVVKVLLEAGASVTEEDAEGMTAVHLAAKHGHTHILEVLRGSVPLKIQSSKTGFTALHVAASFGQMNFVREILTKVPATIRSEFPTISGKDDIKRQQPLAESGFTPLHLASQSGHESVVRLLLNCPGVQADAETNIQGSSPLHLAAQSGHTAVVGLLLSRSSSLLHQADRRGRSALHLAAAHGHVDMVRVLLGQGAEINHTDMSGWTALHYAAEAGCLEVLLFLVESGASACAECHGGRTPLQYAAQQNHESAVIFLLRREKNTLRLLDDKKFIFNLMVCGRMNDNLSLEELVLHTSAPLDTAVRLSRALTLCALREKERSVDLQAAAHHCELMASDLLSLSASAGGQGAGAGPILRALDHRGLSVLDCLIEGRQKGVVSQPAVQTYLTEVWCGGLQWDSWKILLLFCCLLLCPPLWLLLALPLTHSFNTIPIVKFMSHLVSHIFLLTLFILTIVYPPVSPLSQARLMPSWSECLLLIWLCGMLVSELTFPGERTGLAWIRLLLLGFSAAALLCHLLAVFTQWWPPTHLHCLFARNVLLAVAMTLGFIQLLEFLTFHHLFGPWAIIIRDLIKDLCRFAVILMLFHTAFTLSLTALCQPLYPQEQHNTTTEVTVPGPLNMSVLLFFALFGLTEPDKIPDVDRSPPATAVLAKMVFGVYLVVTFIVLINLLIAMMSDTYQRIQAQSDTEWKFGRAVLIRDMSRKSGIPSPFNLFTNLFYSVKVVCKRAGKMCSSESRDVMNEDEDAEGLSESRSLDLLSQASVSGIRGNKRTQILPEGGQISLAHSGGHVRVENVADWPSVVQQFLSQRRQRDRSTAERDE

[9] = P. falciparum late gametocyte killing, dose response, luminescence (AID 1117278); format: functional, cell-based;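 further: gametocytes exposed to compound for 24 hours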
[10] = Jurkat T cell cytotoxicity, dose response, cytotoxicity control for P. falciparum gametocyte viability project, luminescence (AID 1117277); format: functional, cell-based;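 further: potency reflects loss of cellular ATP meaning fewer viable cells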
Estrogen receptor beta [11] = biological target: T3, Estrogen receptor beta (Homo sapiens, UniProt Q92731);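 further: recombinant ER-beta bound to coactivator SRC1 peptide in presence of estradiol agonist; inhibitors block coactivator peptide binding and lower the FRET signal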
T3 sequence (Q92731 whole entry): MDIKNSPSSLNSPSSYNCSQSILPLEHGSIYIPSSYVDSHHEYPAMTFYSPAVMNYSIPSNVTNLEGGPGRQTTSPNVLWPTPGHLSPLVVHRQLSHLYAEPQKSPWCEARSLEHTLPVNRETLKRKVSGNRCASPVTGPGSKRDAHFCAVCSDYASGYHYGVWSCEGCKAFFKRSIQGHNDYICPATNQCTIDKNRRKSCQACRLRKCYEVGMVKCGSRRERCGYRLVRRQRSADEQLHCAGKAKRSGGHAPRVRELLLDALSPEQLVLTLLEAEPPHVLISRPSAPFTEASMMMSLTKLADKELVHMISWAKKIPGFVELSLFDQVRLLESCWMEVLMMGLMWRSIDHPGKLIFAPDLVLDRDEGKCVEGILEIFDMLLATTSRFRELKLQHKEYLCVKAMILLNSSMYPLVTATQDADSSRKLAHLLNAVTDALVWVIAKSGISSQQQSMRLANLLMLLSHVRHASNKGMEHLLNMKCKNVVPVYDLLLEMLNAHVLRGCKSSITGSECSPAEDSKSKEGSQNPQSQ

Estrogen receptor beta [12] = biological target: T3, Estrogen receptor beta; experiment: ERβ–SRC-3 coactivator interaction inhibitors, confirmation, orthogonal assay, biochemical, ELISA, streptavidin-HRP readout (AID 1060)
H9c2 = experiment: cells; format: functional, cell-based; conditions: Rattus norvegicus, H9c2, Myocardium;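 further: confirmatory concentration-response retest of ultra-high-throughput screening hits for modulation of myocardial damage; cell death induced by hydrogen peroxide oxidative stress; compound pretreatment for 60 min then peroxide exposure for 2 h; potency is for protecting the cells against peroxide damage rather than for killing them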
[13] = biological target: Neuropeptides B/W receptor type 1 (Homo sapiens, UniProt P48145); experiment: Fluorescence-based dose response cell-based high throughput screening assay to identify antagonists of the G-protein coupled receptor 7 (GPR7). [Related pubchem assays: 1952 (Screening assay (GPR7 antagonists).), 1880 (Summary AID.)]; format: functional
Neuropeptides B/W receptor type 1, sequence (P48145 whole entry): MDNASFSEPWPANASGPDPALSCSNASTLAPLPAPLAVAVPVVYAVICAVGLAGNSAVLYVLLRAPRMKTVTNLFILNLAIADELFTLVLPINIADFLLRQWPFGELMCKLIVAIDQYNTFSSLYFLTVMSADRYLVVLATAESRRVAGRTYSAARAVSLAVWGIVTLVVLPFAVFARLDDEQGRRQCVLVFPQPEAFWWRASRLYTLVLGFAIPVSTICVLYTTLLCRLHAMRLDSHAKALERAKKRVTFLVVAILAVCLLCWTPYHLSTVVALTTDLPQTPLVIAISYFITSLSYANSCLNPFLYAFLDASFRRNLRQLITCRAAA

[14] = biological target: Melanin-concentrating hormone receptor 1 (Homo sapiens, UniProt Q99705); experiment: Fluorescence-based counterscreen for antagonists of the G-protein coupled receptor 7 (GPR7): cell-based high throughput dose response assay to identify antagonists of the melanin-concentrating hormone receptor 1 (MCHR1).; format: functional
Melanin-concentrating hormone receptor 1, sequence (Q99705 whole entry): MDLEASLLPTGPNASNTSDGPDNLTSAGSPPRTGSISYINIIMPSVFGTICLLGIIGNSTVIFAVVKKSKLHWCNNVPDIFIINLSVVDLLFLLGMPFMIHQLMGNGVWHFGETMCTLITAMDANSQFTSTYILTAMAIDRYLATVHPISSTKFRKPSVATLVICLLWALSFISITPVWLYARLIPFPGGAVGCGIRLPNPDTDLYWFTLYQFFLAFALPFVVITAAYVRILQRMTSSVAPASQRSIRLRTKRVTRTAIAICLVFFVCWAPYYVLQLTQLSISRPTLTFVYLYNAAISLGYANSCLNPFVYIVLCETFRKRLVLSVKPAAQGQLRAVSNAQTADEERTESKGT

[15] = biological target: T4, Heat shock factor protein 1 (Mus musculus, UniProt P38532); experiment: inhibition of MG132-induced HSE-luciferase signal, confirmation, cell-based, NIH3T3, luminescence, dose retest (AID 2382); format: functional;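 further: NIH3T3 fibroblasts with HSF1-driven luciferase reporter stressed by proteasome inhibitor MG132; luminescence from HSF1-driven luciferase expression after 8 hours of MG132 stress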
T4 sequence (P38532 whole entry): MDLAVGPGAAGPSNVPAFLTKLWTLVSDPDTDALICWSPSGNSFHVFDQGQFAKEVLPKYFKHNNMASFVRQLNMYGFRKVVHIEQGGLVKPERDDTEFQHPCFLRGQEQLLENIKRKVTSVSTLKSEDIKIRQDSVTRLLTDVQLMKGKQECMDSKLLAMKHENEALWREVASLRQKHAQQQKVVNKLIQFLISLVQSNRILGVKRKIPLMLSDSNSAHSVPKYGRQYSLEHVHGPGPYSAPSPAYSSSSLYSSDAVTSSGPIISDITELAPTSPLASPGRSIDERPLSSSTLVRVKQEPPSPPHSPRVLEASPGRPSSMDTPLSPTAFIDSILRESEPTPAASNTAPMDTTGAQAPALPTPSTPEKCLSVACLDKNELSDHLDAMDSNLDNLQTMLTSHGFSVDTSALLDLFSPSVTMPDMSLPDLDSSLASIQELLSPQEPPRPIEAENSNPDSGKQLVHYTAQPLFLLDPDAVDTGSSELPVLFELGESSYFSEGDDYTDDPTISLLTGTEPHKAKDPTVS

BJ [16] = experiment: cytotoxicity toward BJ-TERT fibroblasts, dose response, cell-based, RAS-independent, luminescence (AID 1933); format: functional; conditions: Homo sapiens
BJ [17] = experiment: cells; format: functional, cell-based; conditions: Homo sapiens
[18] = Luminescence-based dose response cell-based high throughput screening assay for cytotoxic compounds using the IEC-6 intestinal epithelial cell line. [Related pubchem assays: 1858 (Summary AID.), 1825 (Counterscreen.), 1907 (Confirmation screen.)]; format: functional
BJ [19] = experiment: cytotoxicity toward BJ-TERT-LT-ST fibroblasts, dose response, cell-based, RAS-independent, luminescence (AID 1935); format: functional; conditions: Homo sapiens;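 further: BJ fibroblasts immortalized with TERT plus LT and ST oncogenes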
[20] = cytotoxicity toward DRD oncogenic fibroblasts, dose response, cell-based, non-viral oncogenic, luminescence (AID 1934); format: functional; conditions: Homo sapiens
BJ [21] = experiment: cytotoxicity toward Ras-transformed BJeLR fibroblasts, dose response, cell-based, alamar blue fluorescence, cherrypicked samples (AID 2631); format: functional; conditions: Homo sapiens;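 further: confirmatory dose-response assay in RAS-dependent BJ fibroblasts engineered with TERT, LT and ST, with cytotoxicity read by fluorescence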
[22] = tested on: Streptococcus sp. 'group A'; experiment: growth inhibition of control SK(-) GAS strain, dose response, counter-screen for streptokinase expression inhibitor project, luminescence, kanamycin, BacTiterGlo, confirmation (AID 1900); format: functional, organism-based
Streptokinase A = biological target: T5, Streptokinase A (Streptococcus pyogenes serotype M1, UniProt P10520); experiment: S. pyogenes streptokinase expression inhibitors, potency, dose response, plasminogen activation absorbance, OD405 (AID 1914); format: functional, Streptococcus pyogenes M1 GAS;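 further: secreted streptokinase activity via plasminogen activation per viability signal from cell pellet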
T5 sequence (P10520 whole entry): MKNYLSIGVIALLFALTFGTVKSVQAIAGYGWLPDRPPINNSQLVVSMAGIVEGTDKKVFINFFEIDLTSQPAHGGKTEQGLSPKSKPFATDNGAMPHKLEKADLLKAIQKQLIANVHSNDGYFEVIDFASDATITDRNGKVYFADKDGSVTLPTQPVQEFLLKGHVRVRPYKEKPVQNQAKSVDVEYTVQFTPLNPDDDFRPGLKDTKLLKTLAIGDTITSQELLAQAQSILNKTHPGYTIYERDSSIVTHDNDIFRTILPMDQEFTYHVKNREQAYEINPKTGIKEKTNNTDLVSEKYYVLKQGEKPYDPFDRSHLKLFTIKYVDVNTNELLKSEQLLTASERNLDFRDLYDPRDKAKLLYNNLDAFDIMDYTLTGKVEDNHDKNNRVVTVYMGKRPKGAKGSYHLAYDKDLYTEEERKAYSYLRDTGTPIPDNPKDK

[23] = biological target: Voltage-gated inwardly rectifying potassium channel KCNH2 (Homo sapiens, UniProt Q12809); experiment: hERG protection from proarrhythmic block, potency, dose response, cell-based, thallium flux (AID 2121); format: ADME
Streptococcus = experiment: Group A Streptococcus viability loss, dose response, counter-screen for streptokinase expression inhibitor project, luminescence, BacTiterGlo (AID 1915); format: functional, organism-based;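 further: potency for reduction of bacterial viability or growth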
[24] = Luminescent dose response cell-based high throughput screening assay for inhibitors of the Janus kinase 2 mutant JAK2V617F. [Related pubchem assays: 1446 (Primary screen.), 1521 (Confirmation assay.), 1486 (Counter screen.)]; format: functional
Large T antigen = Large T antigen (Simian virus 40, UniProt P03070); format: functional, Betapolyomavirus macacae;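 further: Confirmatory-stage PubChem screen for compounds that inhibit SV40 T antigen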
Large T antigen, sequence (P03070 whole entry): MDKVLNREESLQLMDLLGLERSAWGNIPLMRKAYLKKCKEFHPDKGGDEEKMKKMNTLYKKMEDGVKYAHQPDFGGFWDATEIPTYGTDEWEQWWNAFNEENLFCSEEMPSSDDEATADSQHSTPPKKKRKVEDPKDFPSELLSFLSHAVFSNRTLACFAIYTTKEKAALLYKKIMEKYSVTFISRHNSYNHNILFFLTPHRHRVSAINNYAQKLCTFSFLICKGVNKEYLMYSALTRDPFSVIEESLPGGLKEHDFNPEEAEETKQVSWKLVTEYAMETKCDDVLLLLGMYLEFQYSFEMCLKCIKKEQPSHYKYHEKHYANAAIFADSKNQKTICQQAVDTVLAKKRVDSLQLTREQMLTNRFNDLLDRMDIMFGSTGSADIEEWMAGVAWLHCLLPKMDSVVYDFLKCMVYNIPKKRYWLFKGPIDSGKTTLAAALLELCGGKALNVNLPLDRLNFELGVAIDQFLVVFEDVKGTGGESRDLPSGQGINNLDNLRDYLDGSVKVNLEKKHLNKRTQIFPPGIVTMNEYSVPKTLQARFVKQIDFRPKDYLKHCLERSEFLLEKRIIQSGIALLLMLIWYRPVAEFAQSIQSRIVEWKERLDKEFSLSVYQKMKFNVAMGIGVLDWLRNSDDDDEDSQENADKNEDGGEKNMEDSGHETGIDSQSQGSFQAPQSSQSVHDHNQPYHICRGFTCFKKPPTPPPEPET

[25] = biological target: T6, E3 ubiquitin-protein ligase XIAP (Homo sapiens, UniProt P98170); experiment: Counter Screen using XIAP-Bir3 for Chemical Antagonists of Bir1/2 domains of IAP-family anti-apoptotic proteins. [Related pubchem assays (depositor defined):AID1018, AID1449, AID1514, AID1638, AID1749, AID1750, AID488957, AID488963]
T6 sequence (P98170 whole entry): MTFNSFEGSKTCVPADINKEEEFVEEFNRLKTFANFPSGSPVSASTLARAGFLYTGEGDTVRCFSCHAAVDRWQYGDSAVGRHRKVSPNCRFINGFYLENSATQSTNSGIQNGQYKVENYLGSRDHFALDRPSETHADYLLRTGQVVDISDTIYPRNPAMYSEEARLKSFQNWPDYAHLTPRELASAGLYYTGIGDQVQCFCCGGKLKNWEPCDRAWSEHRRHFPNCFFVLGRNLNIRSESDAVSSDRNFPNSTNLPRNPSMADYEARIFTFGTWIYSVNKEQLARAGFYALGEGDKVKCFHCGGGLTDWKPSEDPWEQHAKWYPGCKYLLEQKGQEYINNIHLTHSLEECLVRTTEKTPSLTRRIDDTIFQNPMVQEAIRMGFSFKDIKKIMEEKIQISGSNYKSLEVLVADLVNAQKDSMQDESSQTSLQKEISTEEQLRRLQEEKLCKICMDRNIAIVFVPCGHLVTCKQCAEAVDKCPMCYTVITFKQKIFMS

[26] = biological target: T6, E3 ubiquitin-protein ligase XIAP; experiment: XIAP antagonists, biochemical, IAP family, fluorescence polarization (AID 1018); format: functional
[27] = Dose-response inhibition of insulin secretion in a rat insulinoma line at 5 mM glucose (AID 1117331); format: functional, cell-based; conditions: INS-1E
[28] = half-maximal inhibitory concentration for glucagon-like peptide-1 release, STC-1 cell line, dose-response (AID 1117345); format: functional, cell-based
[29] = Glucagon-like peptide 1 release potency, NCI-H716 cell line, dose-response, half-maximal inhibitory concentration (AID 1117344); format: functional, cell-based

CCCCOP(=O)(OCCCC)/C(C#N)=C(/C)O
IC50 (Ephrin type-A receptor 4): > 100 µM (not active)

O=C(Nc1ccc2c(c1)OCO2)NC1CCN(Cc2ccccc2)CC1
IC50 [1]: > 100 µM (not active) | EC50 [2]: 1 µM (active) | EC50 [3]: > 60 µM (not active)

COc1ccc(N2CCN(CC(=O)Nc3ccccc3C(=O)NCc3ccccc3)CC2)cc1
IC50 [4]: 3.53 µM (active) | IC50 [5]: 3.67 µM (active)

CCCSC1=C(C#N)C(c2ccc(Cl)cc2Cl)CC(=O)N1 (stereo not drawn)
IC50 [6]: > 25 µM (active)

O=C(O)c1nc(Cl)c(Cl)c(N/N=C/c2ccccc2)c1Cl
IC50 (NADPH oxidase 1): > 17 µM (not active)

CN(C)CCCn1c(NC(=O)C2CCCCC2)nc2ccccc21
EC50 [7]: > 50 µM (not active)

CC(=O)NC1C(=O)N=C(SCC(=O)NC(C)c2ccccc2)NC1=O (stereo not drawn)
EC50 [8]: 1.67 µM (not active)

CCN(C(=O)c1cnc(OC)cc1C(F)(F)F)c1ccc(Cl)cc1Cl
EC50 (Mucolipin-3): 4.59 µM (active) | EC50 (Ion channel NompC): 8.86 µM (active) | IC50 [9]: > 109 µM (inactive) | IC50 [10]: > 83.3 µM (inactive)

COc1ccccc1N1CCN(C(=O)c2ccc3nc(-c4ccco4)c(-c4ccco4)nc3c2)CC1
IC50 (Estrogen receptor beta [11]): 5.96 µM (active) | IC50 (Estrogen receptor beta [12]): 9.53 µM (not active) | IC50 (H9c2): 11.7 µM (active)

CCCC(CCC)C(=O)Nc1ccc2c(c1)N(C(=O)CCN1CCN(C)CC1)c1ccccc1CC2
IC50 [13]: 7.8 µM (active) | IC50 [14]: 15.7 µM (not active) | EC50 [15]: > 195 µM (not active)

CC(C)(C)c1ccc(C(=O)Nc2ccc(C(=O)NCc3cccnc3)cc2)cc1
EC50 (BJ [16]): 25.5 µM (active) | EC50 (BJ [17]): 0.515 µM (active) | IC50 [18]: 0.177 µM (active) | EC50 (BJ [19]): 0.88 µM (inconclusive) | EC50 [20]: > 150 µM (not active) | EC50 (BJ [21]): 0.549 µM (active)

COc1ccc(N2CCN(C(=S)NC(=O)c3cccs3)CC2)c([N+](=O)[O-])c1
EC50 [22]: 9.37 µM (active) | EC50 (Streptokinase A): > 150 µM (not active) | EC50 [23]: 12.2 µM (active) | EC50 (Streptococcus): 24.5 µM (active)

COC(=O)/C=C/c1ccc(OC(=O)OC)c(OC(=O)OC)c1
IC50 [24]: 2.64 µM (active) | IC50 (Large T antigen): 12.1 µM (active) | IC50 [25]: > 100 µM (inactive) | IC50 [26]: > 100 µM (not active) | IC50 (H9c2): > 79 µM (inactive)

CC(C)(C)CC(C)(C)c1ccc(O)c(Cc2ccc(Cl)cc2Cl)c1 [CLOFOCTOL]
IC50 [27]: > 33.3 µM (inactive) | IC50 [28]: 0.544 µM (active) | IC50 [29]: 9.07 µM (inactive)
